Laboratory results: ChEMBL document CHEMBL4706615, “(Carbonyl)oxyalkyl linker-based amino acid prodrugs of the HIV-1 protease inhibitor atazanavir that enhance oral bioavailability and plasma trough concentration” (Eur J Med Chem, 2020)
In brackets after ≈: the same amount, converted by molar mass.

Legend:
[1] = Stability of compound in phosphate buffer at pH 6.5; format: physicochemical
[2] = Stability of compound in 0.1 N aqueous HCl buffer at pH 1; format: physicochemical
[3] = Stability of compound in acetate buffer at pH 4; format: physicochemical
[4] = Solubility of compound in acetate buffer at pH 4; format: physicochemical
[5] = Ratio of AUClast in Sprague-Dawley rat assessed as atazanavir to parent level at 3 mg/kg equiv of atazanavir administered orally; format: ADME, organism-based; details: in vivo, po
[6] = Solubility of compound in phosphate buffer at pH 6.5; format: physicochemical
[7] = AUClast in Sprague-Dawley rat assessed as atazanavir level at 3 mg/kg equiv of atazanavir administered orally; format: ADME, organism-based; set-up: route oral, time 0 - last, dose 3 mg/kg(equiv); details: in vivo, po
[8] = Half life in phosphate buffer at pH 6.5; format: physicochemical; details: for half-life: phosphate buffer; for t1/2: buffer
[9] = Tmax in Sprague-Dawley rat assessed as atazanavir level at 3 mg/kg equiv of atazanavir administered orally; format: ADME, organism-based; details: in vivo, po
[10] = Half life in 0.1 N aqueous HCl buffer at pH 1; format: physicochemical; details: for half-life: 0.1 N aqueous HCl buffer
[11] = Solubility of compound in 0.1 N aqueous HCl buffer at pH 1; format: physicochemical
[12] = Trough plasma concentration in Sprague-Dawley rat assessed as atazanavir level at 3 mg/kg equiv of atazanavir administered orally measured after 24 hrs; format: ADME, organism-based; details: in vivo, po; for concentration: read-out: Cmin; for Cmin: BLD = below limit of detection
[13] = Cmax in Sprague-Dawley rat assessed as atazanavir level at 3 mg/kg equiv of atazanavir administered orally; format: ADME, organism-based; set-up: route oral, dose 3 mg/kg(equiv); details: in vivo, po
[14] = Total AUC in Sprague-Dawley rat assessed as ratio of atazanavir to parent level at 3 mg/kg equiv of atazanavir administered orally; format: ADME, organism-based; details: in vivo, po
[15] = Relative oral bioavailability in Sprague-Dawley rat assessed as atazanavir level at 3 mg/kg equiv of atazanavir; format: ADME, organism-based; details: in vivo
[16] = Half life in acetate buffer at pH 4; format: physicochemical; details: for half-life: acetate buffer; for t1/2: buffer
[17] = Half life in rat plasma measured after 60 mins; format: ADME, cell-free
[18] = Solubility of compound in fasted state simulated intestinal fluid; format: physicochemical; details: simulated gi fluid
[19] = Half life in rat hepatocytes measured after 120 mins; format: ADME, cell-based, Hepatocyte
[20] = Stability in rat plasma measured after 60 mins; format: ADME, cell-free; details: 1 h
[21] = Trough plasma concentration in Sprague-Dawley rat at 30 mg/kg, po measured after 24 hrs; format: ADME, organism-based; details: read-out: Cmin
[22] = acetate buffer, read-out: solubility
[23] = 0.1 N aqueous HCl buffer, read-out: solubility

SMILES	solubility [4, 22] [µg/mL]	Ratio AUC [5]	solubility [6] [µg/mL]	AUClast [7] [µM·h]	Tmax [9] [h]	half-life [10] [h]	solubility [11, 23] [µg/mL]	concentration [12] [nM]	Cmax [13] [nM]	Ratio AUC [14]	F [15] [%]	half-life [16] [h]	t1/2 [8] [h]	solubility ([11]; buffer) [µg/mL]	other results
COC(=O)N[C@H](C(=O)N[C@@H](Cc1ccccc1)[C@H](CN(Cc1ccc(-c2ccccn2)cc1)NC(=O)[C@@H](NC(=O)OC)C(C)(C)C)OC(=O)OCOC(=O)[C@@H](N)C(C)C)C(C)(C)C	–	–	–	–	–	–	–	–	–	–	–	–	–	–	Stabilty [1]: Unstable; Stabilty [2]: Unstable; Stabilty [3]: Unstable
COC(=O)N[C@H](C(=O)N[C@@H](Cc1ccccc1)[C@H](CN(Cc1ccc(-c2ccccn2)cc1)NC(=O)[C@@H](NC(=O)OC)C(C)(C)C)OC(=O)OCOC(=O)[C@H](C(C)C)N(C)C)C(C)(C)C	> 450	2.3	5 (≈ 5.52 µM)	0.883	0.4	> 500	> 1200	1.9	573	7.7	46	> 500	–	–	half-life [8]: 104 h
COC(=O)N[C@H](C(=O)N[C@@H](Cc1ccccc1)[C@H](CN(Cc1ccc(-c2ccccn2)cc1)NC(=O)[C@@H](NC(=O)OC)C(C)(C)C)OC(=O)OCOC(=O)[C@@H](C(C)C)N(C)C)C(C)(C)C	> 500	2	6 (≈ 6.62 µM)	0.689	0.5	> 500	> 1800	–	639	5.3	36	376	–	–	half-life [8]: 64 h; Cmin [12]: Bld
COC(=O)N[C@H](C(=O)N[C@@H](Cc1ccccc1)[C@H](CN(Cc1ccc(-c2ccccn2)cc1)NC(=O)[C@@H](NC(=O)OC)C(C)(C)C)OC(=O)OCOC(=O)[C@@H](N)Cc1ccccc1)C(C)(C)C	–	–	–	–	–	17	–	–	–	–	–	16.5	–	–	–
COC(=O)N[C@H](C(=O)N[C@@H](Cc1ccccc1)[C@H](CN(Cc1ccc(-c2ccccn2)cc1)NC(=O)[C@@H](NC(=O)OC)C(C)(C)C)OC(=O)OC(C)OC(=O)[C@@H](N)C(C)C)C(C)(C)C (stereo in doubt; 18)	> 3000	–	–	1.013	0.8	> 500	–	–	320	2.6	53	> 500	> 10.9	> 1200	Cmin [12]: Bld
COC(=O)N[C@H](C(=O)N[C@@H](Cc1ccccc1)[C@@H](O)CN(Cc1ccc(-c2ccccn2)cc1)NC(=O)[C@@H](NC(=O)OC)C(C)(C)C)C(C)(C)C [ATAZANAVIR]	< 1	–	< 1	–	–	–	–	–	–	–	–	–	–	–	concentration at 24 h [21]: 5 nM

Further lines, with some results ahead:

solubility [4, 22] [µg/mL]	Ratio AUC [5]	solubility [6] [µg/mL]	AUClast [7] [µM·h]	Tmax [9] [h]	half-life [10] [h]	solubility [11, 23] [µg/mL]	concentration [12] [nM]	Cmax [13] [nM]	Ratio AUC [14]	F [15] [%]	half-life [16] [h]	t1/2 [8] [h]	solubility ([11]; buffer) [µg/mL]	SMILES	other results
–	–	–	–	–	–	–	–	–	–	–	–	5.3	> 3200	COC(=O)N[C@H](C(=O)N[C@@H](Cc1ccccc1)[C@H](CN(Cc1ccc(-c2ccccn2)cc1)NC(=O)[C@@H](NC(=O)OC)C(C)(C)C)OC(=O)OC(C)OC(=O)[C@@H](N)C(C)C)C(C)(C)C (stereo in doubt; 20)	solubility ([4]; buffer): > 1800 µg/mL; t1/2 [16]: 334.3 h
> 980	1	< 1	1.097	0.6	> 500	> 1900	1.9	581	5.7	58	> 500	> 500	–	COC(=O)N[C@H](C(=O)N[C@@H](Cc1ccccc1)[C@H](CN(Cc1ccc(-c2ccccn2)cc1)NC(=O)[C@@H](NC(=O)OC)C(C)(C)C)OC(=O)OC(C)OC(=O)[C@H](C(C)C)N(C)C)C(C)(C)C (stereo in doubt; 21)	half-life [17]: 0.683 h; solubility [18]: 3 µg/mL (≈ 3.26 µM); half-life [19]: 0.417 h
–	17	–	1.958	0.8	–	–	16.7	398	92.1	103	–	214.9	> 1800	COC(=O)N[C@H](C(=O)N[C@@H](Cc1ccccc1)[C@H](CN(Cc1ccc(-c2ccccn2)cc1)NC(=O)[C@@H](NC(=O)OC)C(C)(C)C)OC(=O)OC(C)OC(=O)[C@H](C(C)C)N(C)C)C(C)(C)C (stereo in doubt; 22)	solubility ([4]; buffer): > 490 µg/mL; solubility [18]: 11 µg/mL (≈ 12 µM); Stabilty [20]: Stable; t1/2 [16]: 334.3 h
> 600	–	< 1	–	–	> 500	> 1700	–	–	–	–	> 500	–	–	COC(=O)N[C@H](C(=O)N[C@@H](Cc1ccccc1)[C@H](CN(Cc1ccc(-c2ccccn2)cc1)NC(=O)[C@@H](NC(=O)OC)C(C)(C)C)OC(=O)OC(C)OC(=O)[C@@H](C(C)C)N(C)C)C(C)(C)C (stereo in doubt; 23)	half-life [8]: > 500 h
–	22	–	1.737	0.5	–	–	24	324	104.8	91	–	–	> 2600	COC(=O)N[C@H](C(=O)N[C@@H](Cc1ccccc1)[C@H](CN(Cc1ccc(-c2ccccn2)cc1)NC(=O)[C@@H](NC(=O)OC)C(C)(C)C)OC(=O)OC(C)OC(=O)[C@@H](C(C)C)N(C)C)C(C)(C)C (stereo in doubt; 24)	solubility ([4]; buffer): > 540 µg/mL; t1/2 ([10]; buffer): > 500 h
